Here are results for 15 molecules from ChEMBL document CHEMBL4888484, “Replenishing the malaria drug discovery pipeline: Screening and hit evaluation of the MMV Hit Generation Library 1 (HGL1) against asexual blood stage Plasmodium falciparum ,using a nano luciferase reporter read-out” (2022).

Where only a bound is given, the exact number is not on record here.

For data set [1], the system named is Plasmodium falciparum. Description: Hit confirmation in dose-response curve in Dd2 pLDH assay, at 72h. Details: timepoint 72 hour. The settings on record: Dd2, Erythrocyte. In kind it is functional, organism-based.
In data set [2] the test system is Plasmodium falciparum. Description: Hit confirmation in dose-response curve in NF54 pLDH assay, at 72h. In kind it is functional, organism-based. Details: timepoint 72 hour. The settings on record: NF54, Erythrocyte.
The subject of data set [3] is Plasmodium falciparum. Briefly: Hit confirmation in dose-response curve in NF54 nanoGlo assay, at 12h. The class given is functional, organism-based, Erythrocyte. Details: timepoint 12 hour. The settings on record: Plasmodium falciparum, NF54, Erythrocyte, 12 h.
Data set [4] is described as follows: Hit confirmation in dose-response curve in HepG2 cytotoxicity assay, at 72h. Details: timepoint 72 hour. The class given is toxicity, cell-based. The settings on record: human, HepG2 cells.
Data set [5] relates to Plasmodium falciparum. Description: Hit confirmation in dose-response curve in NF54 nanoGlo assay, at 72h. Details: timepoint 72 hour. The settings on record: Plasmodium falciparum, NF54, Erythrocyte, 72 h. The class given is functional, organism-based, Erythrocyte.

Take `Cc1cc(C)c2nc(C)cc(Nc3ccc(O)cc3)c2c1`: the half-inhibitory concentration (IC50) in data set [1] turned out to be 1.26 µM; in data set [2], 1.66 µM; in data set [3], 7.41 µM; in data set [5], 1.23 µM. Moreover, in data set [4], the IC50 at 72 h was above 10 µM.
The corresponding values for `O=C(Nc1[nH]c(=O)ncc1F)c1cc(F)c(F)cc1Br` are above 10 µM, 0.00166 µM, 0.501 µM, 0.00191 µM and above 10 µM.
The corresponding values for `Cc1cc(Br)cc(N[C@H](c2cccnc2)c2ncc[nH]2)c1` are above 10 µM, above 10 µM, 1.48 µM, 3.39 µM and above 10 µM.
The corresponding values for `CN1CCC(n2ncc3[nH]c(-c4ccc(C(F)(F)F)cc4)nc32)CC1` are 1.2 µM, 1.51 µM, 1.32 µM, 0.692 µM and above 10 µM.
`Cc1ccc(C2=C[C@@H](c3ccc(Cl)cc3)n3nc(NC(=O)c4ccccc4)nc3N2)cc1`: the IC50 in data set [1] turned out to be 2.63 µM; in data set [2] it was 3.47 µM; in data set [3], 2.14 µM; in data set [5], 1.74 µM. Also, the concentration for half-maximal inhibition (IC50) at 72 h in data set [4] is above 10 µM.
Taken in the same sequence, the figures for `Cc1ccc(OCCNc2cc([C@H]3C[C@H](N)C3)nc(C3CC3)n2)cc1C` were 4.37 µM, 4.47 µM, 5.62 µM, 3.31 µM and above 10 µM.
With `CCN(CCN(C)C)C(=O)c1cccc(-c2ccc3nccc(N)c3c2)c1`, the IC50 is 1 µM in data set [1], 1.35 µM in data set [2], 1.74 µM in data set [3] and 1.23 µM in data set [5]. This molecule yielded an IC50 at 72 h in data set [4] above 10 µM.
As for `CC(C)CCn1nnnc1[C@]1(N(C)C)CCCN(C(=O)c2cccn2C)C1`, the IC50 is above 10 µM in data set [1], above 10 µM in data set [2], 0.275 µM in data set [3] and 0.309 µM in data set [5]. Besides, the half-maximal inhibitory concentration (IC50) at 72 h in data set [4] was above 10 µM.
With `CCc1cc(N2C[C@@H]3NC(=O)CN(C)Cc4ccc(OC)c(c4)Oc4cccc(c4)CO[C@H]3C2)nc(N(C)C)n1`, the concentration for half-maximal inhibition (IC50) in data set [1] was 3.47 µM; in data set [2], 3.47 µM; in data set [3] it was 4.79 µM; in data set [5] it was 2.04 µM. In data set [4], this molecule came in with an IC50 at 72 h above 10 µM.
Take `C=C1C(C)C2C(Cc3c[nH]c4ccccc34)NC(=O)C23C(=O)CC(O)C(O)CC(C)C/C=C/C3C1O` (stereo not given): the concentration for half-maximal inhibition (IC50) in data set [1] is 3.39 µM; in data set [2], 3.16 µM; in data set [3], above 10 µM; in data set [5], 1.82 µM. The same molecule showed a concentration for half-maximal inhibition (IC50) at 72 h in data set [4] above 10 µM.
In the case of `Cn1ccnc1[C@@H]1CCCN1Cc1nccn1Cc1ccccc1`, the IC50 in data set [1] was determined as 3.24 µM; in data set [2] it was 2.82 µM; in data set [3], 6.76 µM; in data set [5], 2.09 µM. Further, in data set [4], the IC50 at 72 h was above 10 µM.
Taken in the same sequence, the figures for `C[C@H]1Cc2cc(C(=O)NCc3nc(C(F)(F)F)n[nH]3)ccc2O1` were above 10 µM, above 10 µM, 1.45 µM, 4.27 µM and above 10 µM.
For the molecule `Cc1ccc(S(=O)(=O)c2c(NS(=O)(=O)c3ccc(F)cc3)n(CCc3ccccc3)c3nc4ccccc4nc23)cc1`, the half-maximal inhibitory concentration (IC50) in data set [1] worked out at 4.07 µM; in data set [2], 4.37 µM; in data set [3], 2.75 µM; in data set [5], 1.7 µM. The molecule further returned an IC50 at 72 h in data set [4] above 10 µM.
Consider `O=C(Cc1ccc(N(Cc2cccc(F)c2)C(=O)c2cccc(F)c2)cc1)NCCN1CCCCC1`, for which the IC50 in data set [1] is 7.94 µM; in data set [2], 5.25 µM; in data set [3], above 10 µM; in data set [5], 3.24 µM. For the same molecule, the half-inhibitory concentration (IC50) at 72 h in data set [4] is above 10 µM.
Take `O[C@H]1CNCC[C@@H]1Nc1cc(-c2ccccc2)nc2ccccc12`: the half-inhibitory concentration (IC50) was 1.78 µM in data set [1], 3.8 µM in data set [2], 8.51 µM in data set [3] and 2 µM in data set [5]. This molecule also gave an IC50 at 72 h in data set [4] above 10 µM.
